Source: publication PMC6407913, “DREADD Agonist 21 Is an Effective Agonist for Muscarinic-Based DREADDs in Vitro and in Vivo” (ACS Pharmacology & Translational Science, 2018)
Values joined by “and” are separate entries in the source; they are usually repeats but may differ in a detail not shown here. Identical values can stand only once. Like-named read-outs stand apart in the source and are kept apart here.

Tests used:
[1] = molecular target: T1, hM1 (Homo sapiens, UniProt P11229); experiment: ERK1/2 phosphorylation (pERK1/2) assay; type: cell-based; settings: wildtype hM1
T1 sequence (P11229 1-460): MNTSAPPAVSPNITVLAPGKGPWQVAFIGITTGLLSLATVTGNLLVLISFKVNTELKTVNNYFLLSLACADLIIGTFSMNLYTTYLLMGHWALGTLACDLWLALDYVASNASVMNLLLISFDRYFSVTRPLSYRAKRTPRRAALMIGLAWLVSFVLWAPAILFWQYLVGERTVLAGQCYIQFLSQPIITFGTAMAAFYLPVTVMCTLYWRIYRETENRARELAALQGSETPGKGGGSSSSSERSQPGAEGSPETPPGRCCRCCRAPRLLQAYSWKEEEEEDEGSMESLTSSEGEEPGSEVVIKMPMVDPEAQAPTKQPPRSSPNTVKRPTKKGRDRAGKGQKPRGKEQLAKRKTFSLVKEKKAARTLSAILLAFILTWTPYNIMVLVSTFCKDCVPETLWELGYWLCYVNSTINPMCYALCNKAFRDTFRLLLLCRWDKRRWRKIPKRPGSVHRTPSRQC

[2] = molecular target: T2, 318 nonolfactory human GPCRs (Homo sapiens, UniProt O14842); type: cell-based; settings: FFA1; C21 5 µM
T2 construct: expressed in transfected cells; host or cells: HTLA cells, transient

[3] = molecular target: T3, 318 nonolfactory human GPCRs (Homo sapiens, UniProt P21452); type: cell-based; settings: TACR2; C21 5 µM
T3 construct: expressed in transfected cells; host or cells: HTLA cells, transient

[4] = molecular target: T4, 318 nonolfactory human GPCRs (Homo sapiens, UniProt P29371); type: cell-based; settings: TACR3; C21 5 µM
T4 construct: expressed in transfected cells; host or cells: HTLA cells, transient

[5] = molecular target: T5, 318 nonolfactory human GPCRs (Homo sapiens, UniProt P30939); type: cell-based; settings: HTR1F; C21 5 µM
T5 construct: expressed in transfected cells; host or cells: HTLA cells, transient

[6] = molecular target: 318 nonolfactory human GPCRs (Homo sapiens, UniProt P32238); type: cell-based; settings: CCKAR; C21 5 µM
[7] = molecular target: T6, 318 nonolfactory human GPCRs (Homo sapiens, UniProt P41587); type: cell-based; settings: VIPR2; C21 5 µM
T6 construct: expressed in transfected cells; host or cells: HTLA cells, transient

[8] = molecular target: T7, 318 nonolfactory human GPCRs (Homo sapiens, UniProt P41594); type: cell-based; settings: GRM5; C21 5 µM
T7 construct: expressed in transfected cells; host or cells: HTLA cells, transient

[9] = molecular target: T8, 318 nonolfactory human GPCRs (Homo sapiens, UniProt P48039); type: cell-based; settings: MTNR1A; C21 5 µM
T8 construct: expressed in transfected cells; host or cells: HTLA cells, transient

[10] = molecular target: 318 nonolfactory human GPCRs (Homo sapiens, UniProt P61073); type: cell-based; settings: CXCR4; C21 5 µM
[11] = molecular target: T9, 318 nonolfactory human GPCRs (Homo sapiens, UniProt Q01718); type: cell-based; settings: MC2R; C21 5 µM
T9 construct: expressed in transfected cells; host or cells: HTLA cells, transient

[12] = molecular target: T10, 318 nonolfactory human GPCRs (Homo sapiens, UniProt Q86Y34); type: cell-based; settings: GPR97; C21 5 µM
T10 construct: expressed in transfected cells; host or cells: HTLA cells, transient

[13] = molecular target: T1, hM1; experiment: pERK assay, antagonist mode (shift of ACh curve); type: cell-based; settings: hM1, CHO cells
From the text: (§1) In the absence of C21 ([B] = 0), this equation becomes the standard four-parameter logistic equation for fitting agonist concentration–response data.

[14] = molecular target: D2 (Homo sapiens, UniProt P14416); experiment: Gi1 BRET dissociation assay, antagonist mode; type: cell-based; settings: human D2, HEK293T cells, vs quinpirole
Method: (§2) Separate pcDNA plasmids containing the sequence for Gβ1, Gγ2-GFP^2, Gi1-Rluc8, and either human dopamine D2 receptor or histamine H4 receptor were cotransfected into HEK293T cells (in 10 cm plates) at 1.5 μg/construct using Transit-2020 (Mirus) at a ratio of 3 μL/μg Transit/DNA. The next day, cells were harvested and plated in DMEM containing 1% dFBS in polylysine-coated 96-well plates (Greiner) at 50 000 cells per well. Sixteen hours later, media was aspirated from each well, and cells were subsequently rinsed with 60 μL of assay buffer (20 mM HEPES, 1× Hanks Buffered Saline Solution, pH 7.4). Before drug treatment, 60 μL of fresh assay buffer was added to each well followed by 10 μL of 50 uM Coelenterazine 400a (Prolume). Luminescence and fluorescence were measured using an LB940 Mithras (Berthold technologies), and BRET was computed as the ratio of GFP^2 fluorescence to luciferase signal.
as §1

[15] = molecular target: T11, human H4 histamine receptors (Homo sapiens, UniProt Q9H3N8); experiment: Gi1 BRET dissociation assay, antagonist mode; type: cell-based; settings: human H4, HEK293T cells, vs histamine
T11 construct: expressed in transfected cells; host or cells: HEK293T, transient (pcDNA plasmids)
Method: as §2, §1

[16] = plasma protein binding; type: in vitro ADME
[17] = molecular target: T12, 5-HT1B (Homo sapiens, UniProt P28222); experiment: NIMH PDSP radioligand binding, membranes
T12 construct: NIMH PDSP
Method: (§3) Radioligand binding assays with membrane preparations to determine binding affinity were carried out as outlined before[540] and by the National Institute of Mental Health’s Psychoactive Drug Screening Program (NIMH PDSP) (https://pdsp.unc.edu/), Contract # HHSN-271–2013–00017-C. The NIMH PDSP is Directed by B.L.R. at the University of North Carolina at Chapel Hill, Chapel Hill, NC, and Project Officer Jamie Driscoll at NIMH, Bethesda, MD.

[18] = molecular target: T13, Alpha2B (Homo sapiens, UniProt P18089); experiment: NIMH PDSP radioligand binding, membranes
T13 construct: NIMH PDSP
Method: as §3

[19] = molecular target: CB1 (Homo sapiens, UniProt P21554); experiment: NIMH PDSP radioligand binding, membranes
Method: as §3

[20] = molecular target: DOR (Homo sapiens, UniProt P41143); experiment: NIMH PDSP radioligand binding, membranes
Method: as §3

[21] = molecular target: KOR (Homo sapiens, UniProt P41145); experiment: NIMH PDSP radioligand binding, membranes
Method: as §3

[22] = molecular target: MOR (Homo sapiens, UniProt P35372); experiment: NIMH PDSP radioligand binding, membranes
Method: as §3

[23] = read-out: Ki #1-#5 (individual assays)

T5 sequence (P30939 whole entry): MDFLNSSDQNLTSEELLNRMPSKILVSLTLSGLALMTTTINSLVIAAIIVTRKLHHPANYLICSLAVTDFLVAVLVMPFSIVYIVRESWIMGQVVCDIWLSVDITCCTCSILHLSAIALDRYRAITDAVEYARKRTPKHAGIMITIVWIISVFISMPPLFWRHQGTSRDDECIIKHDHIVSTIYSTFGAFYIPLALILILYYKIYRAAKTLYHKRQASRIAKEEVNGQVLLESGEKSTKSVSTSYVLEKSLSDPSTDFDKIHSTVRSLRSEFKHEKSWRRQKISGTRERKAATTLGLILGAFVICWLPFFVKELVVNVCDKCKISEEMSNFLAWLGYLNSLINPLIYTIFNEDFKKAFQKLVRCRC
T2 sequence (O14842 whole entry): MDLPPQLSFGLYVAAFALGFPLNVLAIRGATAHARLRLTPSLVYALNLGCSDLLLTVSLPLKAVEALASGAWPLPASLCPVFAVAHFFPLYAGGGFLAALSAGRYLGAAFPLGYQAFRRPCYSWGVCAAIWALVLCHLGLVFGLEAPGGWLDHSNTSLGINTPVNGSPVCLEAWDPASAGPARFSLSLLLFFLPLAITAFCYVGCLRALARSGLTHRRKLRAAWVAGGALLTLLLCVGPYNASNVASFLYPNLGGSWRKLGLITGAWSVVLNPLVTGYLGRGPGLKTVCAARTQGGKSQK
T6 sequence (P41587 24-438): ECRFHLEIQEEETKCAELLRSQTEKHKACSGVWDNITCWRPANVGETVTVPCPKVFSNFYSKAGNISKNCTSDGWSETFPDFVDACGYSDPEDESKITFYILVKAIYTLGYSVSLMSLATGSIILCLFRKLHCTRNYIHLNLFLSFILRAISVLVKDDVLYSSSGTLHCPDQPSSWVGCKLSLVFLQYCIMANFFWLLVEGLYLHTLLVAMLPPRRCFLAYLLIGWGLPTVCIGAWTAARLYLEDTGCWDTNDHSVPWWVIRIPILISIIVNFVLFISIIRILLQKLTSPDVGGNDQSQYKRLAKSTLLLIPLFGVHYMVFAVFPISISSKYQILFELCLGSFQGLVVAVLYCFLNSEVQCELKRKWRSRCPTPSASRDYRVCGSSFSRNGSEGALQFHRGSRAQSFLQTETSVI
T13 sequence (P18089 whole entry): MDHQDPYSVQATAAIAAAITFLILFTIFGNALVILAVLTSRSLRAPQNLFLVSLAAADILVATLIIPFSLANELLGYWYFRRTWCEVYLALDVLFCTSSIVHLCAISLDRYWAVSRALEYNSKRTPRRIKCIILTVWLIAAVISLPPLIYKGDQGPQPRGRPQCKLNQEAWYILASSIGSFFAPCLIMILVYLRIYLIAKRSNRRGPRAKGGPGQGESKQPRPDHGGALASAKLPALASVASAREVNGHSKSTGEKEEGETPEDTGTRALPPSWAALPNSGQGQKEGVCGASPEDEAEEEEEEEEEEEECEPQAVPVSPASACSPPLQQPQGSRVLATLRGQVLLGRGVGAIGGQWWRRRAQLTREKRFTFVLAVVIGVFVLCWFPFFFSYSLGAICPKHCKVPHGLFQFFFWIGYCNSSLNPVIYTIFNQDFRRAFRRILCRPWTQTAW
Sequence of 318 nonolfactory human GPCRs (Homo sapiens, UniProt P32238) (P32238 whole entry): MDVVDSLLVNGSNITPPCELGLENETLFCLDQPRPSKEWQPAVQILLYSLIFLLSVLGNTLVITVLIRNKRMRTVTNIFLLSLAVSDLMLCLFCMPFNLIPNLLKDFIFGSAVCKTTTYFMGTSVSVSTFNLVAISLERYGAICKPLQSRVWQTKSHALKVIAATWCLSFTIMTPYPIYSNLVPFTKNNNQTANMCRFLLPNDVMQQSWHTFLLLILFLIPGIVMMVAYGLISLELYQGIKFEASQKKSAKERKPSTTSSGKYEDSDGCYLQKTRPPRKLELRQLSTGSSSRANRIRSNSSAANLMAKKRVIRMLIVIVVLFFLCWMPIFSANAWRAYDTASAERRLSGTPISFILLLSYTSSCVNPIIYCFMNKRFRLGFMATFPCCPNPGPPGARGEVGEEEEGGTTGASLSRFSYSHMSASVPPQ
T10 sequence (Q86Y34 21-549): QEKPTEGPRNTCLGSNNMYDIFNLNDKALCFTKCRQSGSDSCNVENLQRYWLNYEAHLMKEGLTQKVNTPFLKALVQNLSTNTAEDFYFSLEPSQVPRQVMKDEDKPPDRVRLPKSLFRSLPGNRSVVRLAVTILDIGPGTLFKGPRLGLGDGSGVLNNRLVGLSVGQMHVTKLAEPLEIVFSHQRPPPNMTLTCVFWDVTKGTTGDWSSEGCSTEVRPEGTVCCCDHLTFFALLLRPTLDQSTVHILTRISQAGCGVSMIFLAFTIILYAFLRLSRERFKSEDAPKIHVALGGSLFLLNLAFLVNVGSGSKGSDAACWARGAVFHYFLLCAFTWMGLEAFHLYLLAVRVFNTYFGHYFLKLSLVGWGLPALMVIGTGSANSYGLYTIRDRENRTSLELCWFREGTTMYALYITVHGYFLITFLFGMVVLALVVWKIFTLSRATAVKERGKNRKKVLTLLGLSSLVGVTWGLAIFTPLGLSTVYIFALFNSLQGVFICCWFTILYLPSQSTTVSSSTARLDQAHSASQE
T12 sequence (P28222 whole entry, species assumed): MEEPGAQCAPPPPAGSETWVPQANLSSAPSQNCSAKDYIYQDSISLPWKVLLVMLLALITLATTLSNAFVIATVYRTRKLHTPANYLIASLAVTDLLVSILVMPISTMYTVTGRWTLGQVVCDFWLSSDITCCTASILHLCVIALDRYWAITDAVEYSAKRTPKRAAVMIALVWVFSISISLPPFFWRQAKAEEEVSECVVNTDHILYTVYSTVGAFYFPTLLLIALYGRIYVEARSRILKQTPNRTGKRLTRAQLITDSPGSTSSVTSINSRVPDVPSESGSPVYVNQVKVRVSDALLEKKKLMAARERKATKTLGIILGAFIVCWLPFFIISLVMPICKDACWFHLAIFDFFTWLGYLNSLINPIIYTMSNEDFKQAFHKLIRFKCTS
T3 sequence (P21452 whole entry): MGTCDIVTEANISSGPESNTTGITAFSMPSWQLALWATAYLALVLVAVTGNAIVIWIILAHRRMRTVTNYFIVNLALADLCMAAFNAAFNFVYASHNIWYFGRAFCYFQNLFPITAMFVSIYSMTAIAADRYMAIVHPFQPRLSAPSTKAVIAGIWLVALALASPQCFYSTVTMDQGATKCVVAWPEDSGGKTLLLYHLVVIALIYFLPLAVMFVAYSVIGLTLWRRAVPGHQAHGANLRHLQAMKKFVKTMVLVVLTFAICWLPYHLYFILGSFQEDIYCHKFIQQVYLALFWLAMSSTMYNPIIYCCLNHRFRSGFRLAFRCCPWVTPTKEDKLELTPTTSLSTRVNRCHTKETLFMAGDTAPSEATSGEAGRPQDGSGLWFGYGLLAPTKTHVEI
Sequence of MOR (P35372 whole entry): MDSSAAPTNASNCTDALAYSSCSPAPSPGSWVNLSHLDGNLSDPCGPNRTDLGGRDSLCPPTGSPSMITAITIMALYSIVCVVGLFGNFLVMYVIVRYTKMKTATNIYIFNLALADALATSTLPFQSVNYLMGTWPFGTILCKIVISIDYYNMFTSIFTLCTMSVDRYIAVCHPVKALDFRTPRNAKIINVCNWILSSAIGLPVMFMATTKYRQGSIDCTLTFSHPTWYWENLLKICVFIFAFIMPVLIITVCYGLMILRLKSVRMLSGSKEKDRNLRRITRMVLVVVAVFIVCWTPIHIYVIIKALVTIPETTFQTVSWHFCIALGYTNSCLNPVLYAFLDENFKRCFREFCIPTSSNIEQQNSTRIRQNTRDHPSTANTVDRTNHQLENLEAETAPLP
Sequence of DOR (P41143 whole entry): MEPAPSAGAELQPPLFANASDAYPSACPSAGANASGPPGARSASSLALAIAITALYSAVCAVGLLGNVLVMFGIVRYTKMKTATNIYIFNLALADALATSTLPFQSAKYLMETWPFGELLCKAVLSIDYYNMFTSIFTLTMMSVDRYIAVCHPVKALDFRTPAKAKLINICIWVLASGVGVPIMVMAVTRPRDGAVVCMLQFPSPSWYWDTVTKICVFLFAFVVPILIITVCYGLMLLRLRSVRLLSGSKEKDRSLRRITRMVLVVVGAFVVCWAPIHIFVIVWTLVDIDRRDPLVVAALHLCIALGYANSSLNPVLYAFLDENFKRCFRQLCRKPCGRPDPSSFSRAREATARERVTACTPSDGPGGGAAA
T9 sequence (Q01718 whole entry): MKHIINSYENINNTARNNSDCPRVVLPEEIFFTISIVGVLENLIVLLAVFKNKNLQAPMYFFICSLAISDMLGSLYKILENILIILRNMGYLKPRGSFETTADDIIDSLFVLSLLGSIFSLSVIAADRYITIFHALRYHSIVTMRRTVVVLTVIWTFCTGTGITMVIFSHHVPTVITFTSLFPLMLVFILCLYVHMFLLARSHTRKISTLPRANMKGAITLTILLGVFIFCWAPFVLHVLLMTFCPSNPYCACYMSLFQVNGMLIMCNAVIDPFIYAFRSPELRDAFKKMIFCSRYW
T8 sequence (P48039 whole entry): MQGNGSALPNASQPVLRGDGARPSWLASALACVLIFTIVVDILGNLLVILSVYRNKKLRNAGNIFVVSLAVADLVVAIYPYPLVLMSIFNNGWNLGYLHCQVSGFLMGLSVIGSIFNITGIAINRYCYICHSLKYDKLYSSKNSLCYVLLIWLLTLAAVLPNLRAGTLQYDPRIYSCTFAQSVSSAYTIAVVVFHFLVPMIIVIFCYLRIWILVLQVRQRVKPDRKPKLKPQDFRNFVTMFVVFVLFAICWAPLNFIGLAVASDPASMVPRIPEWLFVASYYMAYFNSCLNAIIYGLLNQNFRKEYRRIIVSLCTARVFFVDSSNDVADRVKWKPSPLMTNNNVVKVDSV

## c1ccc2c(c1)N=C(N1CCNCC1)c1ccccc1N2 [C21, 11-(1-piperazinyl)-5H-dibenzo[b,e][1,4]diazepine]
[1]
  agonist activity in pERK1/2 assay: no agonist activity
[2]
  FOLD OVER BASAL: 0.4 fold and 0.7 fold and 0.8 fold
[3]
  FOLD OVER BASAL: 0.7 fold and 0.9 fold and 0.6 fold and 1.1 fold
[4]
  FOLD OVER BASAL: 1.2 fold and 0.8 fold and 0.6 fold and 0.7 fold
[5]
  FOLD OVER BASAL: 1.1 fold and 1 fold and 0.8 fold
[6]
  FOLD OVER BASAL: 1.2 fold and 0.8 fold and 0.7 fold
[7]
  FOLD OVER BASAL: 0.6 fold and 0.8 fold and 0.9 fold
[8]
  FOLD OVER BASAL: 1.1 fold and 0.7 fold
[9]
  FOLD OVER BASAL: 1.1 fold and 0.9 fold and 1 fold
[10]
  FOLD OVER BASAL: 0.7 fold and 1 fold and 0.9 fold
[11]
  FOLD OVER BASAL: 1.1 fold and 0.6 fold and 0.7 fold
[12]
  FOLD OVER BASAL: 0.6 fold and 0.5 fold and 0.7 fold
[13]
  antagonist activity (shift of acetylcholine curve, pERK): weak functional antagonism
[14]
  antagonist activity, Gi-dissociation assay: antagonism
[15]
  antagonist activity, Gi-dissociation assay: no antagonism was observed
[16]
  fraction unbound: 0.049
[17]; read-out: Ki
  Ki: 3640 nM
[17]; [23]
  Ki: 4590 nM and 4530 nM and 2320 nM
[17]; read-out: log Ki (individual assays) (converted)
  Ki: 4570 nM
[18]; read-out: Ki
  Ki: 474 nM
[18]; [23]
  Ki: 1520 nM and 157 nM and 247 nM and 857 nM
[19]; read-out: Ki
  Ki: > 10000 nM
[19]; [23]
  Ki: > 10000 nM
[20]; read-out: Ki
  Ki: 387 nM
[20]; [23]
  Ki: 685 nM and 241 nM and 373 nM and 363 nM
[21]; read-out: Ki
  Ki: 2980 nM
[21]; [23]
  Ki: 6690 nM and 2680 nM and 1470 nM
[22]; read-out: Ki
  Ki: 3880 nM
[22]; [23]
  Ki: 2230 nM and 4820 nM and 5430 nM
